Measured values taken from patent US20240075004A1, “VERY-LONG-CHAIN POLYUNSATURATED FATTY ACIDS, ELOVANOID HYDROXYLATED DERIVATIVES, AND METHODS OF USE” (The Board of Supervisors of Louisiana State University and …, priority 2020, published 2024).

What was measured:
[1] = system: HNEpC; experiment: HNEpC challenged with HDM: SPiDER β-galactosidase staining; assay type: cell-based, human; conditions: 500 nM; HDM 30 μg/ml
Procedure: ELVN-34 protects HNEpC from the senescence-associated secretory phenotype (SASP response). Representative images of HNEpC stained with Hoechst 33342 and spider β-galactosidase—(Panel A) untreated (Control), (Panel B) challenged with HDM (30 μg/ml), and (Panel C) HNEpC treated with HDM and ELVN-34:6 Na (500 nM). (Panel D) Quantitative assessment of increased SASP response (measured by the spider β-galactosidase staining) upon HDM exposure (30 μg/ml). ELVN-34:6 Na (500 nM) treatment reduces the number of beta-gal positive HNEpC induced by HDM. […] (*p<0.05).
Cryopreserved human nasal epithelial cells HNEpC were purchased from PromoCell GmbH, Heidelberg, Germany. (Catalog #C-1260, Lot #436Z028).
The cells used for our experiments are primary nasal epithelial cells obtained from the nasal mucosa of a person.
Cells were received in passage (P1) and were sub-culture to passage (P3), which were used for all the experiments.
HNEpC were grown to 80% confluency in Promocell's Airway epithelial cell growth medium (Catalog #C-21060) which was supplemented with airway epithelial cell growth medium supplement pack (Catalog #C-39160) and Penicillin/Streptomycin.

[2] = system: pro-inflammatory transcriptome and pro-homeostatic pathways in RPE single-cells; experiment: UOS transcriptome in RPE single-cells; assay type: cell-based; conditions: 96 per sample
Excerpt: Dots in box plots represent expression of the gene for a single RPEC (total of 96 per sample). P<0.001 (***), P<0.01 (**), One-way Anova, with Post-Hoc Tukey HSD test for multiple comparisons.

[3] = system: human RPE cells; experiment: Oxidative-stress and Erastin induced cell death in human RPE cells; assay type: cell-based
[4] = system: RPE and PRC; experiment: Subretinal injection of OAβ in WT mice: fundus/OCT and ZO-1 whole flat mount of RPE; assay type: in vivo, C57BL/6J WT mice; conditions: OAβ-injected retina, 10 μM subretinal, 7 days; non-injected retina 105 μm
Procedure: All animal experiments were performed according to ARVO Statement for the Use of Animals in Ophthalmic and Vision Research, and the protocol was approved by LSU Health New Orleans' Institutional Animal Care and Use Committee (IACUC). 6-month-old 5×FAD mice (stock number: 34848-JAX, The Jackson Laboratory, Bar Harbor, ME, USA), co-overexpress FAD mutant forms of human amyloid precursor protein (the Swedish mutation: K670N, M671L; the Florida mutation: I716V; and the London mutation: V7171) and presenilin 1 (PS1, encoded by Psen1: M146L, L286V) transgenes under transcriptional control of the neuron-specific mouse Thy1 promoter. 5×FAD mice were hemizygotes with respect to the transgenes and non-transgenic WT littermates. Genotyping was performed by PCR of tail DNA. All analyses were carried out blind with respect to the mice genotype. For the subretinal injection, 6-month-old C57BL/6J mice were anesthetized by an intraperitoneal injection of ketamine/xylazine, pupils dilated with 1.0% tropicamide (Akorn, IL, USA); and 0.5% Proparacaine Hydrochloride (Akorn) was applied for topical anesthesia. Eyes were punctured with a 30-gauge needle between the corneoscleral junction and the ora serrata into the vitreous cavity without disturbing the lens. Compounds were delivered to the subretinal region using a 33-gauge blunt needle attached to a 5 μl Hamilton syringe (Hamilton Company, Reno, NV, USA) under a dissecting microscope. Non-injected mice were used as negative control while the PBS injected mice were used for sham. The injection volume was 2 μl containing PBS, 10 μM of OAβ, 10 μM of OAβ+200 ng ELV-N-32, 200 ng ELV-N-32 alone, 10 μM of OAβ+200 ng ELV-N-34 or 200 ng ELV-N-34 alone (n=12/group). All groups received topical drops: PBS only or ELV-N-32 (200 nM) or ELV-N-34 (200 nM), twice a day for 3 or 7 days.
For the whole mount RPE staining, eyeballs were enucleated and pre-fixed in 4% PFA for 15 min. Then the eye cup containing RPE sheet were fixed in 4% PFA for 30 min, washed in PBS 3× following the blocking step for 1 h at room temperature. The immunostaining was performed by incubating primary antibody (ZO-1) for 48 h at 4° C. Then the eye cups were washed 3× with PBS and incubated with the secondary antibody for 12 h at 4° C. The primary human RPE cells as well as mouse eye cups were embedded in ProLong™ Gold Antifade Mounting medium (Thermo Fisher Scientific) between two glass coverslips. Pictures were taken with Olympus FV1200 microscope (Olympus, Japan). Images were analyzed by software ImageJ (rsb.info.nih.gov/ij/).
7 days post-injection, mice were anesthetized with ip ketamine/xylazine, pupil dilated by topical 1.0% tropicamide and placed in a custom-built holder for OCT imaging (body temperature maintained at 38° C. with a heat pad). Retinas were imaged along the horizontal meridian through the optic nerve head using a Heidelberg Spectralis HRA OCT system (Heidelberg Engineering, Heidelberg, Germany). Axial resolution is […]. The raw OCT B-scans cross-sectional images were exported with the scale in m and opened in ImageJ (http//imagej.nih.gov/ij). The PRC layer thickness was defined as the width from the tip of the outer nuclear layer, right after the outer plexiform layer, to the outer segments of PRC. Three measurements were made on the same scan and averaged. Mean and standard error of the mean (SEM) were calculated (n=4/group). Students' T-test was used to calculate statistical significance and a P-value less than 0.05 was considered significant.

## CC/C=C\C[C@H](O)\C=C/C=C/C=C/[C@H](O)C/C=C\C/C=C\CCCCCCCCCCCCCCC(=O)[O-].[Na+] [ELVN-34:6 Na, sodium (16Z,19Z,22R,23E,25E,27Z,29S,31Z)-22,29-dihydroxytetratriaconta-16,19,23,25,27,31-hexaenoate]
[1]
  number of beta-gal positive HNEpC (SASP response, spider β-galactosidase staining): reduces

## CC/C=C\C[C@H](O)\C=C/C=C/C=C/[C@H](O)C/C=C\C/C=C\CCC(=O)O [NPD1, 10R,17S-dihydroxy-docosa-4Z,7Z,11E,13E,15Z,19Z-hexaenoic acid, reference compound]
[2]
  UOS up-regulation of pro-inflammatory transcriptome and down-regulation of pro-homeostatic pathways: suppress these changes
[3]
  oxidative-stress and Erastin induced cell deaths: counteracted

## OAβ: Aβ (1-42) oligomerized for 24 h at 4° C.; cytotoxic challenge injected subretinally or added to cells [reference compound]
[4]
  PRC layer thickness (OCT): 35 μm
